Laboratory results published in patent publication US20200093864A1, “NOVEL THERAPEUTIC STEM CELL COMPOSITIONS WITH AN ACTIVE OXIDATIVE PHOSPHORYLATION SITE AND THEIR PREPARATION” (priority 2018, published 2020).

What was measured:
[1] = test system: human pancreatic cancer cells growing in athymic mice; conditions: direct injection into subcutaneous tumors, cited from earlier work; for tumor growth inhibition (in words): 6 weeks, vs propylene glycol vehicle controls
[2] = test system: human adenocarcinoma cells; test: Growth of cultured human adenocarcinoma cells (Example 7); type: cell-based; conditions: for growth of cultured human adenocarcinoma cells (in words): Table 2 summary; for cell growth (10^5): cell numbers on day 4, 10^5 cells passaged day 0; for cell growth (10^5) / cell growth (% of control): TR2Co and TR 30 mg/dL, hMSC 10^5 added; for cell growth (% of control): day 4
Experimental: Human adenocarcinoma cells were cultured in RPMI medium with added fetal bovine serum and antibiotics, as reported by McCully K S et al in Research Communications in Chemical Pathology and Pharmacology, 1992; 77: 125-128. Equal numbers (10^5) of adenocarcinoma cells were trypsinized and passaged on day 0, and the cells were refed with media containing test compounds on days 1 and 3. Cell numbers were determined by trypsinization on day 4. Thioretinaco (TR2Co) and thioretinamide (TR) were synthesized, as previously described (McCully U.S. Pat. No. 4,618,685; McCully U.S. Pat. No. 4,925,931) and dissolved in absolute ethanol. Propylene glycol (PG) was added to the ethanol solutions of the test compounds, the ethanol was evaporated under reduced pressure at 37° C., and the resulting solutions in propylene glycol were added to the culture media. Human mesenchymal stem cells (hMSC) were incubated with cell culture medium containing TR2Co, NAD^+ and H2PO4^− in an atmosphere containing 5% ozone (O3), to produce activated stem cells and 10^5 hMSC were added to the culture medium containing adenocarcinoma cells. Equal numbers (10^5) of hMSC without exposure to TR2Co, O3, NAD^+ and H2PO4^− served as controls.

[3] = test system: human pancreatic carcinoma cells; conditions: added in the culture medium, after 4 days, compared with ethanol vehicle controls; cited from earlier work
[4] = test system: person with metastatic prostate cancer; test: Example 1: intravenous activated stem cell therapy, patient case; type: in vivo, human; conditions: following luprolide therapy, over three months; 8.0 before
Experimental: Preparation of human mesenchymal stem cells containing an increased concentration of the active site of oxidative phosphorylation, TR2CoO3O2NAD^+H2PO4^−, is accomplished by incubation of stem cells in cell culture medium containing thioretinaco (TR2Co), 30 mg/dL, and […] (NAD^+H2PO4^−), 30 mg/dL, and exposed to an atmosphere containing ozone […], 1-10% by volume. Human mesenchymal stem cells are isolated by liposuction or by bone marrow aspiration, followed by collagenase digestion, filtration of cellular debris, centrifugation and adherence of the cellular pellet to the surface of the cell culture dish. Adherent mesenchymal stem cells are maintained in cell culture medium for 4-5 days at about 37 degrees centigrade at atmospheric pressure until 90% confluency is achieved, subsequently passaged by trypsinization four additional times, and washed in buffered saline for use. Aliquots of the mesenchymal stem cells are checked for cell viability, and absence of fungal, bacterial, endotoxin and mycoplasma contamination. Multiple doses of 10^8 cells are delivered in 100 ml of sterile saline intravenously to achieve a total dose of 2.5×10^10 cells over a period of two years. The final concentration of TR2CoO3O2NAD^+H2PO4^− within the activated stem cells is approximately 10-300 μg/g.
A person was evaluated for treatment of metastatic prostate cancer. […]

[5] = test system: cultured normal fibroblasts; conditions: thioretinaco in culture medium; cited from earlier work

Compound	tumor growth inhibition (in words) [1]	growth of cultured human adenocarcinoma cells (in words) [2]	cell growth (10^5) [2]	cell growth (% of control) [2]	cellular growth (in words) [3]	other results
CC1=C(/C=C/C(C)=C/C=C/C(C)=C/C(=O)NC2CCSC2=O)C(C)(C)CCC1 (stereo not drawn) [TR, N-homocysteine thiolactonyl retinamide]	no growth inhibition	significantly inhibit	1.4 ± 0.50 10^5	19 % of control	inhibition of cellular growth	
luprolide						PSA value [4]: 0.1 ng/mL
homocysteine thiolactonyl cobalamin	no growth inhibition					
N-homocysteine thiolactonyl retinamido cobalamin [TR2Co]		significantly inhibit	2.5 ± 0.82 10^5	33 % of control	inhibition of cellular growth	growth of cultured normal fibroblasts (in words) [5]: Only the highest concentrations of thioretinaco decrease growth; reduction of tumor weight ([1]; after 6 weeks of growth, compared with propylene glycol vehicle controls): 50%
C/C1=C2/[N-][C@H]([C@H](CC(N)=O)[C@@]2(C)CCC(=O)NC[C@@H](C)OP(=O)([O-])O[C@H]2[C@@H](O)[C@@H](n3cnc4cc(C)c(C)cc43)O[C@@H]2CO)[C@]2(C)N=C(/C(C)=C3N=C(/C=C4N=C1[C@@H](CCC(N)=O)C\4(C)C)[C@@H](CCC(N)=O)[C@]\3(C)CC(N)=O)[C@@H](CCC(N)=O)[C@]2(C)CC(N)=O.[CH2-][C@H]1O[C@@H](n2cnc3c(N)ncnc32)[C@H](O)[C@@H]1O.[Co] [adenosyl cobalamin]	no growth inhibition					
N[C@H]1CCSC1=O.[O-][Cl+3]([O-])([O-])O [homocysteine thiolactone perchlorate]	no growth inhibition					
